Experimental data reported in patent US20060029649A1, “Stabilized antimicrobial agents” (priority 2004, published 2006).

Assay: Thermal stability of IPBC in lubricant mixtures, oven at 180° C., amount determined by HPLC
Assay type: physicochemical
Procedure: Except for example 2 wherein 100% IPBC was used, the antimicrobial agent was admixed with the lubricating agent at room temperature overnight in a roller mixer. Samples of the resulting mixtures were then placed in a conventional oven at 180° C. for the time specified below (5 minutes and 132 minutes). The amount of antimicrobial agent in the sample, initially and after heating, was determined by HPLC. All samples were contained in dark bottles and covered with aluminum foil during heating.
The samples were prepared and tested as described in Examples 1-5.

## CCCCNC(=O)OCC#CI [Example 2, 3-iodo-2-propynyl butyl carbamate]
After 5 minutes in oven at 180° C.
  % Biocide/ 5 min.: 83%
After 132 minutes in oven at 180° C.
  % Biocide/ 132 min.: 0%
Before heating, by weight
  % Initial Biocide: 100%
